According to patent publication US7084137B2, “Thiazines and thiazoles as agents for protecting materials” (Bayer Aktiengesellschaft, priority 2001, dated 2006):
≈ marks a conversion by molar mass, not a printed value.

How the values were obtained:
Aspergillus niger = experiment: Minimum inhibitory concentration (MIC) against fungi on malt extract agar; assay type: cell-based; conditions: 2 weeks of incubation at 28° C., 60 to 70% relative atmospheric humidity; for MIC: Aspergillus niger, 336 h
Protocol: (§1) The active compounds according to the invention are in each case added, in concentrations of from 0.1 mg/l to 5000 mg/l, to an agar which is prepared using malt extract. The MIC is determined after 2 weeks of incubation at 28° C. and 60 to 70% relative atmospheric humidity.

Chaetomium globosum = experiment: as above; assay type: cell-based; conditions: 2 weeks of incubation at 28° C., 60 to 70% relative atmospheric humidity; for MIC: Chaetomium globosum, 336 h
Protocol: as §1

Penicillium brevicaule = experiment: as above; assay type: cell-based; conditions: 2 weeks of incubation at 28° C., 60 to 70% relative atmospheric humidity; for MIC: Penicillium, 336 h
Protocol: as §1

Bacillus subtilis = experiment: Minimum inhibitory concentration (MIC) against bacteria on nutrient agar; assay type: cell-based; conditions: 3 days of incubation at 28° C., 60 to 70% relative atmospheric humidity; for MIC: Bacillus subtilis, 72 h
Protocol: The active compounds according to the invention are in each case added, in concentrations of from 0.1 mg/ml to 5000 mg/ml, to a chemically defined nutrient agar. The MIC is determined after 3 days of incubation at 28° C. and 60 to 70% relative atmospheric humidity.

[1] = system: mould fungi (Alternaria tenius, Aspergillus flavus, Aspergillus niger, Aspergillus ustus, Cindosporum herbarum, Paecilomyces variotii, Penicillium citrium …); experiment: Test of dispersion coatings for resistance to mould; conditions: coatings according to recipe A containing 1.5% (based on solids) of compound; even after leaching out and wind tunnel exposure; 2–3 weeks storage
Protocol: To test dispersion coatings for resistance to mould, the following procedure is adopted:
The paint to be tested is applied to both sides of a suitable base. To obtain results which are close to practice, some of the test specimens are leached out with running water (24 h, 20° C.) before the test for mould resistance; others are treated with a current of warm fresh air (7 days, 40° C.).
The samples prepared in this way are then placed on an agar nutrient medium, and both samples and nutrient medium are contaminated with fungal spores. After 2–3 weeks storage (29±1° C., 80–90% rel. atmospheric humidity), the samples are compared.
The coating is considered to be permanently mould-resistant if the sample remains free from fungus or at most a slightly border infestation can be detected.
For the contamination, fungal spores of the following mould fungi are used, which are known as paint destroyers or are frequently encountered on coatings: • Alternaria tenius • Aspergillus flavus • Aspergillus niger • Aspergillus ustus • Cindosporum herbarum • Paecilomyces variotii • Penicillium citrium • Aureobasidium pullulans • Stachybotrys chartarum
Recipe A: Exterior dispersion paint based on Acroal 290 D (styrene acrylate)

| MIC (Aspergillus niger) [µg/mL] | MIC (Chaetomium globosum) [µg/mL] | MIC (Penicillium brevicaule) [µg/mL] | Compound | Minimum inhibitory concentration, Chaetomium globosum (Chaetomium globosum) [ppm] | Minimum inhibitory concentration, Penicillium brevicaule (Penicillium brevicaule) [ppm] | also measured |
| --- | --- | --- | --- | --- | --- | --- |
|  |  |  | COc1ccc(SC2=NCCCS2)cc1OC [Example 42] | 100 | <200 | Minimum inhibitory concentration, Aspergillus niger (Aspergillus niger): 500 ppm |
| < 150 | < 100 | < 200 | O=[N+]([O-])c1ccc(SC2=NCCCS2)cc1 [CAS No. 73122-52-8, 2-[(4-nitrophenyl)sulfanyl]-5,6-dihydro-4H-1,3-thiazine] |  |  |  |
|  | < 200 | 200 (≈ 870 µM) | Clc1ccc(SC2=NCCS2)cc1 [CAS No. 103482-92-4, 2-[4-chlorophenylsulfanyl]-4,5-dihydro-1,3-thiazole] |  |  |  |
| < 250 | < 200 | < 100 | Cc1ccc(SC2=NCCCS2)cc1 [CAS No. 73122-44-8, 2-[(4-methylphenyl)sulfanyl]-5,6-dihydro4H-1,3-thiazine] |  |  |  |
|  |  |  | C=CCSC1=NCCS1 [CAS No. 3571-74-2, 2-[allylsulfanyl]-4,5-dihydro-1,3-thiazole] |  |  | MIC (Bacillus subtilis): 200 µg/mL (≈ 1260 µM) |
|  |  |  | COC(=O)C1CSC(Sc2cccc(Cl)c2)=N1 (stereo not drawn) [Example 18] | 200 |  |  |
|  |  |  | COC(=O)C1CSC(SC(C)C)=N1 (stereo not drawn) [Example 8] |  |  | Minimum inhibitory concentration, Bacillus subtilis (Bacillus subtilis): <200 ppm |
| < 400 | < 200 | < 200 | Clc1ccc(SC2=NCCCS2)cc1 [CAS No. 10554-28-6, 2-[(4-chlorophenyl)sulfanyl]-5,6-dihydro-4H-1,3-thiazine] |  |  |  |
|  |  |  | Oc1cccc(SC2=NCCCS2)c1 [Example 41] | 200 | 100 |  |
|  |  |  | COc1cccc(SC2=NCCCS2)c1 [Example 25] |  |  | Mould resistance of coating [1]: mould-resistant |
| 100 (≈ 440 µM) | < 100 | < 50 | Fc1ccc(SC2=NCCCS2)cc1 [CAS No. 73122-42-6, 2-[(4-fluorophenyl)sulfanyl]-5,6-dihydro-4H-1,3-thiazine] |  |  |  |
| < 300 | < 200 | < 200 | Brc1ccc(SC2=NCCCS2)cc1 [CAS No. 73122-41-5, 2-[(4-bromophenyl)sulfanyl]-5,6-dihydro-4H-1,3-thiazine] |  |  |  |
| < 200 | < 200 | < 200 | Clc1ccccc1SC1=NCCCS1 [CAS No. 55545-14-7, 2-[(2-chlorophenyl)sulfanyl]-5,6-dihydro-4H-1,3-thiazine] |  |  |  |
|  |  |  | c1ccc(CSC2=NCCCS2)cc1 [Example 22] |  |  | Minimum inhibitory concentration, Bacillus subtilis (Bacillus subtilis): 100 ppm |
| 400 (≈ 1440 µM) | < 100 | < 100 | Clc1ccc(SC2=NCCCS2)cc1Cl [CAS No. 73122-34-6, 2-[(3,4-dichlorophenyl)sulfanyl]-5,6-dihydro-4H-1,3-thiazine] |  |  |  |
|  |  |  | FC(F)(F)c1ccc(SC2=NCCCS2)cc1 [Example 40] | <100 | <100 | Minimum inhibitory concentration, Aspergillus niger (Aspergillus niger): <250 ppm |
| 100 (≈ 377 µM) | < 100 | < 100 | CC(C)(C)c1ccc(SC2=NCCCS2)cc1 [CAS No. 73122-48-2, 2-[(4-tert-butylphenyl)sulfanyl]-5,6-dihydro-4H-1,3-thiazine] |  |  |  |
| < 400 | < 400 | < 300 | COc1ccc(SC2=NCCCS2)cc1 [CAS No. 73122-49-3, 2-[(4-methoxyphenyl)sulfanyl]-5,6-dihydro-4H-1,3-thiazine] |  |  |  |

| MIC (Aspergillus niger) [µg/mL] | MIC (Chaetomium globosum) [µg/mL] | MIC (Penicillium brevicaule) [µg/mL] | Compound | Minimum inhibitory concentration, Chaetomium globosum (Chaetomium globosum) [ppm] | Minimum inhibitory concentration, Penicillium brevicaule (Penicillium brevicaule) [ppm] | also measured |
| --- | --- | --- | --- | --- | --- | --- |
|  |  |  | Clc1ccc(SC2=NCCCS2)c(Cl)c1 [CAS No. 73122-35-7, 2-[(2,4-dichlorophenyl)sulfanyl]-5,6-dihydro-4H-1,3-thiazine] |  |  | MIC (Bacillus subtilis): < 40 µg/mL |
| 200 (≈ 820 µM) | < 200 | < 200 | Clc1cccc(SC2=NCCCS2)c1 [CAS No. 73122-33-5, 2-[(3-chlorophenyl)sulfanyl]-5,6-dihydro4H-1,3-thiazine] |  |  |  |
| < 300 | < 200 | < 200 | c1ccc(SC2=NCCCS2)cc1 [CAS No. 73122-32-4, 2-(phenylsulfanyl)-5,6-dihydro-4H-1,3-thiazine] |  |  | MIC (Bacillus subtilis): < 100 µg/mL |
|  |  |  | CCc1ccc(SC2=NCCCS2)cc1 [Example 44] | <100 | <100 | Minimum inhibitory concentration, Aspergillus niger (Aspergillus niger): 100 ppm |
|  | < 200 | < 200 | O=[N+]([O-])c1ccc(SC2=NCCS2)cc1 [CAS No. 103482-99-1, 2-[4-nitrophenylsulfanyl]-4,5-dihydro-1,3-thiazole] |  |  |  |
|  |  |  | COc1ccccc1SC1=NCCCS1 [Example 26] | 200 | 100 |  |
|  |  |  | Fc1cccc(SC2=NCCCS2)c1 [Example 39] | <100 | <100 | Minimum inhibitory concentration, Aspergillus niger (Aspergillus niger): 100 ppm |
|  |  |  | c1cc(C2CC2)ccc1SC1=NCCCS1 [Example 49] | <100 | <100 | Minimum inhibitory concentration, Aspergillus niger (Aspergillus niger): 100 ppm |
|  |  |  | c1ccc(-c2cccc(SC3=NCCCS3)c2)cc1 [Example 48] | <100 | 200 |  |
|  |  |  | c1ccc(Oc2ccc(SC3=NCCCS3)cc2)cc1 [Example 45] | <100 | 100 |  |
|  | < 200 | 200 (≈ 870 µM) | Clc1cccc(SC2=NCCS2)c1 [CAS No. 103482-93-5, 2-[3-chlorophenylsulfanyl]-4,5-dihydro-1,3-thiazole] |  |  |  |
| 200 (≈ 792 µM) | < 100 | 100 (≈ 396 µM) | CN(C)c1ccc(SC2=NCCCS2)cc1 [CAS No. 73122-51-7, 4-(5,6-dihydro-4H-1,3-thiazin-2-ylsulfanyl)-N,N-dimethylaniline] |  |  |  |
| < 200 | < 100 | < 100 | Cc1cccc(SC2=NCCCS2)c1 [CAS No. 73122-45-9, 2-[(3-methylphenyl)sulfanyl]-5,6-dihydro4H-1,3-thiazine] |  |  |  |
| 200 (≈ 895 µM) | < 200 | 100 (≈ 448 µM) | Cc1ccccc1SC1=NCCCS1 [CAS No. 73122-46-0, 2-[(2-methylphenyl)sulfanyl]-5,6-dihydro-4H-1,3-thiazine] |  |  |  |
|  |  |  | Cc1cccc(C)c1SC1=NCCCS1 [Example 37] | <200 | 400 |  |
|  |  |  | COc1ccccc1SC1=NCCCS1 [Example 36] | 100 | 100 | Minimum inhibitory concentration, Aspergillus niger (Aspergillus niger): 100 ppm |
|  |  |  | Clc1cc(Cl)cc(SC2=NCCCS2)c1 [CAS No. 73122-37-9, 2-[(3,5-dichlorophenyl)sulfanyl]-5,6-dihydro-4H-1,3-thiazine] |  |  | MIC (Bacillus subtilis): 100 µg/mL (≈ 359 µM) |
